Test results reported in patent US8906904B2, “Alkoxy pyrazoles as soluble guanylate cyclase activators” (Boehringer Ingelheim International GmbH, priority 2012, dated 2014).

Key:
[1] = human liver microsome (HLM) metabolic stability assay; type: in vitro ADME; details: human liver microsomes; % hepatic blood flow calculated from t1/2
Procedure, shortened: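 Compounds at 1 uM incubated with human liver microsomes plus NADPH at 37° C., sampled at 0, 5, 15, 30 and 60 min into cold acetonitrile and quantified by LC/MS/MS. t½ from the slope of ln % remaining vs time; CLint, CLh and % Qh derived from it (n=1).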

[2] = target: T1, human soluble guanylate cyclase alpha 1 and beta 1 subunits (sGC) (Homo sapiens, UniProt Q02108+Q02153); assay: sGC cellular activator assay (cGMP, HTRF); type: cell-based; details: CHO cells stably expressing human sGC alpha 1/beta 1, preincubated with 40 microM ODQ; cGMP readout; assay run with and without 50% human serum, Table 2 does not say which
T1 construct: expressed in transfected cells; host or cells: Chinese hamster ovary (CHO) cells, stably transfected
T1 sequence (Q02108 1-690): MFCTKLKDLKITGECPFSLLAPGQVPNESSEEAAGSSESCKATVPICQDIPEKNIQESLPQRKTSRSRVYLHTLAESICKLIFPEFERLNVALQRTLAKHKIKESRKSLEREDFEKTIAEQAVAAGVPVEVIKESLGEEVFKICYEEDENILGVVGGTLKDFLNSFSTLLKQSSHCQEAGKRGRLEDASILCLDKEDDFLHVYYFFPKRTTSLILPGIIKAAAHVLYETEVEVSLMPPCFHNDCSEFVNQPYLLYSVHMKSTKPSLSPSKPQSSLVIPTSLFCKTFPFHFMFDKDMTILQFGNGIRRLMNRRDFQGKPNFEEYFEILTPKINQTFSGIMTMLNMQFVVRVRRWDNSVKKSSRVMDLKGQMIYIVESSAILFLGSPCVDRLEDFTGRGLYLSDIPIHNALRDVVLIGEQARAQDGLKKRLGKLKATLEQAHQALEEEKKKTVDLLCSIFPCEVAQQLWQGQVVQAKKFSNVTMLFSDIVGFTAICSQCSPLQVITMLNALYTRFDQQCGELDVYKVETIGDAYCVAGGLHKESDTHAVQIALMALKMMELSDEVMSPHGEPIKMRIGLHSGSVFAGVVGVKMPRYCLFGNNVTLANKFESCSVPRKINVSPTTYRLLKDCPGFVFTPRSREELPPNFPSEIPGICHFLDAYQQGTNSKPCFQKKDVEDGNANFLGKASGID
T1 sequence (Q02153 1-619): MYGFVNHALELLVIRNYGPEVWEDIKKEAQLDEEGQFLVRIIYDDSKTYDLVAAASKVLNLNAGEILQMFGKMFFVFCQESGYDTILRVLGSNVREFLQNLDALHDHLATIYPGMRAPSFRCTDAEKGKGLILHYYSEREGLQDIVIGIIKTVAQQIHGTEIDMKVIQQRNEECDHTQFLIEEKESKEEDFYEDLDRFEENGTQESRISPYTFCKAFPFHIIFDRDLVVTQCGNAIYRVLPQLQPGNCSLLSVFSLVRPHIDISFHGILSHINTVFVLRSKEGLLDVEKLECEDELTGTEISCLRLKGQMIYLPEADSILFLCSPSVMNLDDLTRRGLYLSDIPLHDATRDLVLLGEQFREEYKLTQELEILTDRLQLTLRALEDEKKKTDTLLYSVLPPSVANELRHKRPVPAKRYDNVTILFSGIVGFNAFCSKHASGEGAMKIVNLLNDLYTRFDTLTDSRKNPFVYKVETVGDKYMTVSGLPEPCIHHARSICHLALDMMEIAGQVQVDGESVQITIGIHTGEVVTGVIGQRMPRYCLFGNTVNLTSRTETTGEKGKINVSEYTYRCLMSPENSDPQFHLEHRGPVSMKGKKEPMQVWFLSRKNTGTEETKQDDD
Procedure, shortened: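 Heme-oxidized conditions: ODQ (40 microM, 1 h) pretreatment of CHO cells stably expressing human α1/β1 sGC, in buffer containing 0.1% BSA and IBMX.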

| Compound | HLM (% Qh) [1] [% Qh] | EC50 [2] [nM] |
| --- | --- | --- |
| Cc1cccc(-c2cccc(-n3ncc(C(=O)O)c3OC(C)C)n2)c1OCc1ccc2c(c1)CCN(C1CCOCC1)C2 [Compound 1, 5-isopropoxy-1-(6-{3-methyl-2-[2-(tetrahydro-pyran-4-yl)-1,2,3,4-tetrahydro-isoquinolin-6-ylmethoxy]-phenyl}-pyridin-2-yl)-1H-pyrazole-4-carboxylic acid] | <24 | 39 |
| Cc1cccc(-c2cccc(-n3ncc(C(=O)O)c3OC(C)C)n2)c1OCc1ccc2c(c1)CCN(C1CCC(F)(F)CC1)C2 [Compound 2] | <24 | 11 |
| COc1c(C(=O)O)cnn1-c1cccc(-c2cccc(C)c2OCc2ccc3c(c2)CCN(C2CCOCC2)C3)n1 [Compound 3] | <24 | 29 |
| Cc1cccc(-c2cccc(-n3ncc(C(=O)O)c3OC(C)C)n2)c1OCc1ccc2c(c1)CCN(CC1CC(F)(F)C1)C2 [Compound 4, 1-(6-{2-[2-(3,3-difluoro-cyclobutylmethyl)-1,2,3,4-tetrahydro-isoquinolin-6-ylmethoxy]-3-methyl-phenyl}-pyridin-2-yl)-5-isopropoxy-1H-pyrazole-4-carboxylic acid] | <24 | 11 |
| COc1c(C(=O)O)cnn1-c1cccc(-c2cccc(C)c2OCc2ccc3c(c2)CCN(C2CCC(F)(F)CC2)C3)n1 [Compound 5] | <24 | 9 |
| CCOc1c(C(=O)O)cnn1-c1cccc(-c2cccc(C)c2OCc2ccc3c(c2)CCN(C2COC2)C3)n1 [Compound 6] | <24 | 87 |
| COc1c(C(=O)O)cnn1-c1cccc(-c2cccc(C)c2OCc2ccc3c(c2C)CCN(CC(C)(C)C)C3)n1 [Compound 30] | <24 | 10 |
| COc1c(C(=O)O)cnn1-c1cccc(-c2cccc(C)c2OCc2ccc3c(c2C)CCN(C2CCOC2)C3)n1 (stereo not drawn) [Compound 31] | <24 | 19 |
| CCOc1c(C(=O)O)cnn1-c1cccc(-c2cccc(C)c2OCc2ccc3c(c2)CCN(C(C)C)C3)n1 [Compound 32] | <24 | 170 |
| COc1c(C(=O)O)cnn1-c1cccc(-c2cccc(C)c2OCc2ccc3c(c2)CCN(CC(C)(C)O)C3)n1 [Compound 33, 1-(6-{2-[2-(2-hydroxy-2-methyl-propyl)-1,2,3,4-tetrahydro-isoquinolin-6-ylmethoxy]-3-methyl-phenyl}-pyridin-2-yl)-5-methoxy-1H-pyrazole-4-carboxylic acid] | <24 | 97 |
| CCOc1c(C(=O)O)cnn1-c1cccc(-c2cccc(C)c2OCc2ccc3c(c2)CCN(CC2(C)COC2)C3)n1 [Compound 34] | <24 | 65 |
| CCOc1c(C(=O)O)cnn1-c1cccc(-c2cccc(C)c2OCc2ccc3c(c2)CCN(C2CCOC2)C3)n1 (stereo not drawn) [Compound 35] | <24 | 29 |
| CCOc1c(C(=O)O)cnn1-c1cccc(-c2cccc(C)c2OCc2ccc3c(c2)CCN(C2CCCOC2)C3)n1 (stereo not drawn) [Compound 36] | <24 | 27 |
| Cc1cccc(-c2cccc(-n3ncc(C(=O)O)c3OC(C)C)n2)c1OCc1ccc2c(c1)CCN(C(C)C)C2 [Compound 37] | <24 | 120 |
| COCC(C)N1CCc2cc(COc3c(C)cccc3-c3cccc(-n4ncc(C(=O)O)c4OC(C)C)n3)ccc2C1 (stereo not drawn) [Compound 38] | <24 | 66 |
| Cc1cccc(-c2cccc(-n3ncc(C(=O)O)c3OC(C)C)n2)c1OCc1ccc2c(c1)CCN(C1COC1)C2 [Compound 39] | <24 | 17 |
| Cc1cccc(-c2cccc(-n3ncc(C(=O)O)c3OC(C)C)n2)c1OCc1ccc2c(c1)CCN(CC1(C)COC1)C2 [Compound 40] | <24 | 62 |
| Cc1cccc(-c2cccc(-n3ncc(C(=O)O)c3OC(C)C)n2)c1OCc1ccc2c(c1)CCN(C1CCOC1)C2 (stereo not drawn) [Compound 41] | <24 | 27 |

| Compound | HLM (% Qh) [1] [% Qh] | EC50 [2] [nM] |
| --- | --- | --- |
| Cc1cccc(-c2cccc(-n3ncc(C(=O)O)c3OC(C)C)n2)c1OCc1ccc2c(c1)CCN(C1CCCOC1)C2 (stereo not drawn) [Compound 42] | <24 | 24 |
| Cc1cccc(-c2cccc(-n3ncc(C(=O)O)c3OC(C)C)n2)c1OCc1ccc2c(c1C)CCN(C(C)C)C2 [Compound 43] | 26 | 130 |
| COCC(C)N1CCc2c(ccc(COc3c(C)cccc3-c3cccc(-n4ncc(C(=O)O)c4OC(C)C)n3)c2C)C1 (stereo not drawn) [Compound 44] | <24 | 44 |
| Cc1cccc(-c2cccc(-n3ncc(C(=O)O)c3OC(C)C)n2)c1OCc1ccc2c(c1C)CCN(C1COC1)C2 [Compound 45] | <24 | 26 |
| Cc1cccc(-c2cccc(-n3ncc(C(=O)O)c3OC(C)C)n2)c1OCc1ccc2c(c1C)CCN(CC1(C)COC1)C2 [Compound 46] | <24 | 38 |
| CCOc1c(C(=O)O)cnn1-c1cccc(-c2cccc(C)c2OCc2ccc3c(c2)CCN(C(C)CF)C3)n1 (stereo not drawn) [Compound 49, 5-ethoxy-1-(6-{2-[2-(2-fluoro-1-methyl-ethyl)-1,2,3,4-tetrahydro-isoquinolin-6-ylmethoxy]-3-methyl-phenyl}-pyridin-2-yl)-1H-pyrazole-4-carboxylic acid] | 48 | 54 |
| CCOc1c(C(=O)O)cnn1-c1cccc(-c2cccc(Cl)c2OCc2ccc3c(c2)CCNC3)n1 [Compound 50] | 40 | 990 |
| CCOc1c(C(=O)O)cnn1-c1cccc(-c2cccc(Cl)c2OCc2ccc3c(c2)CCN(C2COC2)C3)n1 [Compound 51] | <24 | 72 |
| COc1c(C(=O)O)cnn1-c1cccc(-c2cc(F)cc(F)c2OCc2ccc3c(c2)CCN(C2COC2)C3)n1 [Compound 52] | <24 | 170 |
| COc1c(C(=O)O)cnn1-c1cccc(-c2cc(F)cc(F)c2OCc2ccc3c(c2)CCN(C2CCOCC2)C3)n1 [Compound 53] | <24 | 110 |
| CCOc1c(C(=O)O)cnn1-c1cccc(-c2cccc(Cl)c2OCc2ccc3c(c2)CCN(C2CCOCC2)C3)n1 [Compound 54] | <24 | 110 |
| CCOc1c(C(=O)O)cnn1-c1cccc(-c2cccc(Cl)c2OCc2ccc3c(c2)CCN(C2CCOC2)C3)n1 (stereo not drawn) [Compound 55] | <24 | 110 |
| CCOc1c(C(=O)O)cnn1-c1cccc(-c2cccc(Cl)c2OCc2ccc3c(c2)CCN(C(C)CO)C3)n1 (stereo not drawn) [Compound 56] | <24 | 820 |
| CCOc1c(C(=O)O)cnn1-c1cccc(-c2cccc(Cl)c2OCc2ccc3c(c2)CCN(C2CCC(F)(F)CC2)C3)n1 [Compound 57] | <24 | 24 |
| CCOc1c(C(=O)O)cnn1-c1cccc(-c2cccc(Cl)c2OCc2ccc3c(c2)CCN(CCOC)C3)n1 [Compound 58] | <24 | 82 |
| COc1c(C(=O)O)cnn1-c1cccc(-c2cccc(C)c2OCc2ccc3c(c2)CCN(C2CCOC(C)(C)C2)C3)n1 (stereo not drawn) [Compound 61] | <24 | 59 |
| COc1c(C(=O)O)cnn1-c1cccc(-c2cccc(C)c2OCc2ccc3c(c2)CCN(C2CC(C)OC(C)C2)C3)n1 (stereo not drawn) [Compound 62] | <24 | 24 |
| COc1c(C(=O)O)cnn1-c1cccc(-c2cccc(F)c2OCc2ccc3c(c2)CCN(C2CCOCC2)C3)n1 [Compound 63] | <24 | 82 |
